What was measured:
bedstraw = assay: Test B pre/postemergence bedstraw; assay type: in vivo, Galium aparine
Summary of the method: (§1)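 Test chemicals in a non-phytotoxic solvent mixture with surfactant were sprayed preemergence onto planted seeds and postemergence onto plants 2 to 18 cm tall (1- to 4-leaf stage). After twelve to sixteen days in a greenhouse, injury was visually rated against untreated controls from 0 (no effect) to 10 (complete control).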

blackgrass = assay: Test B pre/postemergence blackgrass; assay type: in vivo, Alopecurus myosuroides
Summary of the method: as §1

surinam grass = assay: Test B pre/postemergence surinam grass; assay type: in vivo, Brachiaria decumbens
Summary of the method: as §1

cocklebur = assay: Test B pre/postemergence cocklebur; assay type: in vivo, Xanthium strumarium
Summary of the method: as §1

corn = assay: Test B pre/postemergence corn; assay type: in vivo, Zea mays
Summary of the method: as §1

crabgrass = assay: Test B pre/postemergence crabgrass; assay type: in vivo, Digitaria sanguinalis
Summary of the method: as §1

giant foxtail = assay: Test B pre/postemergence giant foxtail; assay type: in vivo, Setaria faberii
Summary of the method: as §1

morningglory = assay: Test B pre/postemergence morningglory; assay type: in vivo, Ipomoea hederacea
Summary of the method: as §1

pigweed = assay: Test B pre/postemergence pigweed; assay type: in vivo, Amaranthus retroflexus
Summary of the method: as §1

rape = assay: Test B pre/postemergence rape; assay type: in vivo, Brassica napus
Summary of the method: as §1

soybean = assay: Test B pre/postemergence soybean; assay type: in vivo, Glycine max
Summary of the method: as §1

sugar beet = assay: Test B pre/postemergence sugar beet; assay type: in vivo, Beta vulgaris
Summary of the method: as §1

velvetleaf = assay: Test B pre/postemergence velvetleaf; assay type: in vivo, Abutilon theophrasti
Summary of the method: as §1

wheat = assay: Test B pre/postemergence wheat; assay type: in vivo, Triticum aestivum
Summary of the method: as §1

wild oat = assay: Test B pre/postemergence wild oat; assay type: in vivo, Avena fatua
Summary of the method: as §1

purple nutsedge = assay: Test B pre/postemergence purple nutsedge; assay type: in vivo, Cyperus rotundus; conditions: Postemergence; for Nutsedge plant response rating: 10 is complete control; for Plant response rating, Nutsedge: scale of 0 to 10 where 0 is no effect and 10 is complete control
Summary of the method: as §1

[1] = Postemergence, Rate 125 g/ha, scale 0 to 10, 0 is no effect, 10 is complete control
[2] = Postemergence, Rate 500 g/ha, scale of 0 to 10 where 0 is no effect and 10 is complete control
[3] = Preemergence, Rate 62 g/ha, scale 0 to 10 (0 no effect, 10 complete control)
[4] = Preemergence, Rate 125 g/ha, scale 0 to 10, 0 is no effect, 10 is complete control
[5] = Preemergence, Rate 500 g/ha, scale of 0 to 10 where 0 is no effect and 10 is complete control
[6] = Rate 250 g/ha, Postemergence, scale of 0 to 10 where 0 is no effect and 10 is complete control
[7] = Postemergence, Rate 62 g/ha, scale of 0 to 10, 0 is no effect, 10 is complete control

CC(C)N(C(=O)n1oc(=O)n(CCCF)c1=O)c1ccccc1 [Compound 559]
Bedstraw plant response rating (bedstraw; [1]): 0 | Plant response rating, Bedstraw (bedstraw; [2]): 4 | Bedstraw plant response rating (bedstraw; [3]): 0 | Bedstraw plant response rating (bedstraw; [4]): 0 | Bedstraw plant response rating (0 to 10 scale) (bedstraw; Preemergence, Rate 250 g/ha): 0 | Bedstraw plant response rating (bedstraw; [5]): 0 | Plant response rating, Bedstraw (bedstraw; [6]): 0 | Blackgrass plant response rating (blackgrass; [7]): 7 | Blackgrass plant response rating (blackgrass; [1]): 7 | Plant response rating, Blackgrass (blackgrass; [2]): 7 | Blackgrass plant response rating (blackgrass; [3]): 9 | Blackgrass plant response rating (blackgrass; [4]): 10 | Blackgrass plant response rating (0 to 10 scale) (blackgrass; Preemergence, Rate 250 g/ha): 10 | Blackgrass plant response rating (blackgrass; [5]): 10 | Plant response rating, Blackgrass (blackgrass; [6]): 7 | B. signalgrass plant response rating (surinam grass; [7]): 4 | B. signalgrass plant response rating (surinam grass; [1]): 9 | Plant response rating, B. signalgrass (surinam grass; [2]): 9 | B. signalgrass plant response rating (surinam grass; [3]): 8 | B. signalgrass plant response rating (surinam grass; [4]): 10 | B. signalgrass plant response rating (0 to 10 scale, 0 is no effect, 10 is complete control) (surinam grass; Preemergence, Rate 250 g/ha): 9 | B. signalgrass plant response rating (surinam grass; [5]): 9 | Plant response rating, B. signalgrass (surinam grass; [6]): 9 | Cocklebur plant response rating (cocklebur; [7]): 0 | Cocklebur plant response rating (cocklebur; [1]): 0 | Plant response rating, Cocklebur (cocklebur; [2]): 2 | Cocklebur plant response rating (cocklebur; [3]): 0 | Cocklebur plant response rating (cocklebur; [4]): 0 | Cocklebur plant response rating (0 to 10 scale) (cocklebur; Preemergence, Rate 250 g/ha): 0 | Cocklebur plant response rating (cocklebur; [5]): 2 | Plant response rating, Cocklebur (cocklebur; [6]): 0 | Corn plant response rating (corn; [7]): 0 | Corn plant response rating (corn; [1]): 0 | Plant response rating, Corn (corn; [2]): 7 | Corn plant response rating (corn; [3]): 2 | Corn plant response rating (corn; [4]): 3 | Corn plant response rating (0 to 10 scale) (corn; Preemergence, Rate 250 g/ha): 6 | Corn plant response rating (corn; [5]): 6 | Plant response rating, Corn (corn; [6]): 6 | Crabgrass plant response rating (crabgrass; [7]): 5 | Crabgrass plant response rating (crabgrass; [1]): 4 | Plant response rating, Crabgrass (crabgrass; [2]): 9 | Crabgrass plant response rating (crabgrass; [3]): 9 | Crabgrass plant response rating (crabgrass; [4]): 10 | Crabgrass plant response rating (0 to 10 scale) (crabgrass; Preemergence, Rate 250 g/ha): 10 | Crabgrass plant response rating (crabgrass; [5]): 10 | Plant response rating, Crabgrass (crabgrass; [6]): 9 | Giant foxtail plant response rating (giant foxtail; [7]): 9 | Giant foxtail plant response rating (giant foxtail; [1]): 9 | Plant response rating, Giant foxtail (giant foxtail; [2]): 9 | Giant foxtail plant response rating (giant foxtail; [3]): 10 | Giant foxtail plant response rating (giant foxtail; [4]): 10 | Giant foxtail plant response rating (0 to 10 scale) (giant foxtail; Preemergence, Rate 250 g/ha): 10 | Giant foxtail plant response rating (giant foxtail; [5]): 10 | Plant response rating, Giant foxtail (giant foxtail; [6]): 9 | Morningglory plant response rating (morningglory; [7]): 9 | Morningglory plant response rating (morningglory; [1]): 10 | Plant response rating, Morningglory (morningglory; [2]): 10 | Morningglory plant response rating (morningglory; [3]): 0 | Morningglory plant response rating (morningglory; [4]): 2 | Morningglory plant response rating (0 to 10 scale) (morningglory; Preemergence, Rate 250 g/ha): 4 | Morningglory plant response rating (morningglory; [5]): 8 | Plant response rating, Morningglory (morningglory; [6]): 9 | Redroot pigweed plant response rating (pigweed; [7]): 0 | Plant response rating, Redroot pigweed (pigweed; [2]): 8 | Redroot pigweed plant response rating (pigweed; [3]): 7 | Redroot pigweed plant response rating (pigweed; [4]): 10 | Redroot pigweed plant response rating (0 to 10 scale) (pigweed; Preemergence, Rate 250 g/ha): 10 | Redroot pigweed plant response rating (pigweed; [5]): 10 | Plant response rating, Redroot pigweed (pigweed; [6]): 3 | Rape plant response rating (rape; [7]): 0 | Rape plant response rating (rape; [1]): 0 | Plant response rating, Rape (rape; [2]): 2 | Rape plant response rating (rape; [3]): 7 | Rape plant response rating (rape; [4]): 9 | Rape plant response rating (0 to 10 scale) (rape; Preemergence, Rate 250 g/ha): 10 | Rape plant response rating (rape; [5]): 10 | Plant response rating, Rape (rape; [6]): 2 | Soybean plant response rating (soybean; [7]): 4 | Plant response rating, Soybean (soybean; [2]): 6 | Soybean plant response rating (soybean; [3]): 0 | Soybean plant response rating (soybean; [4]): 2 | Soybean plant response rating (0 to 10 scale) (soybean; Preemergence, Rate 250 g/ha): 3 | Soybean plant response rating (soybean; [5]): 3 | Plant response rating, Soybean (soybean; [6]): 5 | Sugarbeets plant response rating (sugar beet; [7]): 0 | Plant response rating, Sugarbeets (sugar beet; [2]): 8 | Sugarbeets plant response rating (sugar beet; [3]): 3 | Sugarbeets plant response rating (sugar beet; [4]): 6 | Sugarbeets plant response rating (0 to 10 scale) (sugar beet; Preemergence, Rate 250 g/ha): 9 | Sugarbeets plant response rating (sugar beet; [5]): 9 | Plant response rating, Sugarbeets (sugar beet; [6]): 2 | Velvetleaf plant response rating (velvetleaf; [7]): 0 | Plant response rating, Velvetleaf (velvetleaf; [2]): 3 | Velvetleaf plant response rating (velvetleaf; [3]): 3 | Velvetleaf plant response rating (velvetleaf; [4]): 4 | Velvetleaf plant response rating (0 to 10 scale) (velvetleaf; Preemergence, Rate 250 g/ha): 6 | Velvetleaf plant response rating (velvetleaf; [5]): 9 | Plant response rating, Velvetleaf (velvetleaf; [6]): 2 | Wheat plant response rating (wheat; [7]): 2 | Plant response rating, Wheat (wheat; [2]): 3 | Wheat plant response rating (wheat; [3]): 3 | Wheat plant response rating (wheat; [4]): 8 | Wheat plant response rating (0 to 10 scale) (wheat; Preemergence, Rate 250 g/ha): 9 | Wheat plant response rating (wheat; [5]): 9 | Plant response rating, Wheat (wheat; [6]): 2 | Wild oats plant response rating (wild oat; [7]): 2 | Plant response rating, Wild oats (wild oat; [2]): 5 | Wild oats plant response rating (wild oat; [4]): 9 | Wild oats plant response rating (0 to 10 scale) (wild oat; Preemergence, Rate 250 g/ha): 9 | Wild oats plant response rating (wild oat; [5]): 9 | Plant response rating, Wild oats (wild oat; [6]): 4 | Nutsedge plant response rating (purple nutsedge; Rate 62 g/ha, scale of 0 to 10, 0 is no effect): 0 | Nutsedge plant response rating (purple nutsedge; Rate 125 g/ha, scale 0 to 10, 0 is no effect): 0 | Plant response rating, Nutsedge (purple nutsedge; Rate 500 g/ha): 2 | Plant response rating, Nutsedge (purple nutsedge; Rate 250 g/ha): 2
